Experimental data as given in PMC11672137, “High-Affinity Lectin Ligands Enable the Detection of Pathogenic Pseudomonas aeruginosa Biofilms: Implications for Diagnostics and Therapy” (JACS Au, 2024).
“And” between values parts separate entries of the source, which are not always exact repeats. Equal entries are not always repeated.

Experiments:
LecA [1] = molecular target: T1, LecA (Pseudomonas aeruginosa, UniProt Q05097); test: Isothermal titration calorimetry with LecA; assay type: binding; conditions: for -TΔS (ITC, average) / N (ITC stoichiometry, average) / ΔG (ITC, average) / ΔH (ITC, average): LecA, average ± s.d.
T1 construct: made in house
Protocol: (§1) Next, binding of the optimized divalent ligand 17 and its synthetic precursor 16 to LecA was evaluated by fluorescence polarization-based (FP) assays,[47] SPR, and ITC. […] Therefore, fluorescent ligand 17 was analyzed in a direct binding experiment by FP. […] The dissociation constants for 16 were 47.2 ± 11.3 nM (ITC) and 47.8 ± 44.1 nM (steady-state SPR), while for 17, the values were 64.1 ± 31.1 nM and 79.3 ± 24.9 nM (steady-state SPR). For the SPR experiments, Kd was also determined by single-cycle kinetic analysis resulting in approximately five times higher affinity, but the data have limited reliability due to suboptimal fit for the kinetic curves (Figures S13B and S14).[58]−[60]
Figure 3 Evaluation of the optimized fluorescent ligand 17 and its synthetic precursor 16 in LecA binding using thermodynamic analysis by ITC. Data for one representative experiment are depicted. Averages and standard deviation from at least three independent experiments (*two independent experiments). TEXT PRINTED IN THE PICTURE: 16: ΔG [kJ/mol]: -41.9 ± 0.6*; ΔH [kJ/mol]: -89.3 ± 0.8*; -TΔS [kJ/mol]: 47.4 ± 1.4*; N: 0.47 ± 0.03*; Kd [nM]: 47.2 ± 11.3* | 17: ΔG [kJ/mol]: -41.4 ± 1.2; ΔH [kJ/mol]: -83.5 ± 3.2; -TΔS [kJ/mol]: 42.1 ± 4.3; N: 0.50 ± 0.03; Kd [nM]: 64.1 ± 31.1 […]
Isothermal titration calorimetry (ITC) was performed on an iTC200 (Malvern Panalytical) and the data were analyzed using Microcal Origin software (Malvern Panalytical).
LecA (50 µM) in the cell was titrated with ligand (100 µM or 200 µM) in TBS/Ca2+ buffer supplemented with 5% DMSO at 25 °C. Steep titration slopes achieved with the divalent ligands were the result of high amount of protein present and the high binding affinity of the ligand (high ‘value of c’).22 However, LecA protein concentration lower than 50 µM resulted in insufficient signal as a consequence of the low heat released upon binding.
Figure S15: ITC measurements of divalent alkyne ligand 16 with LecA performed in TBS/Ca2+ buffer with 5% […]
Figure S16: ITC measurements of divalent fluorescent ligand 17 with LecA performed in TBS/Ca2+ buffer with […]
50 µM LecA 50 µM LecA 50 µM LecA

LecA [2] = molecular target: T1, LecA; test: Surface plasmon resonance, LecA binding
Protocol: as §1, with “S14).[58]−[60] […]” for “S14).[58]−[60]”
Surface plasmon resonance experiments were performed on a BIACORE X100 instrument (GE Healthcare) at 25 °C as described by Zahorska et. al..2 Averages and standard deviations were calculated from three independent experiments. […]
Stability and LecA binding and inhibition of divalent LecA ligands
100 Expe rime ntal data 1:1 fi t 120 Expe rime ntal data 1:1 fi t
100 Expe rime ntal dataSame well1:1 fi t 80 Expe rime ntal data 1:1 fi t
-20 Time [s] -20 Times [s]
100 Expe rime ntal data 1:1 fi t 80 Expe rime ntal data 1:1 fi t mode l
-20 Time [s] -20 Time [s]
Figure S7: SPR of divalent LecA acylhydrazone ligand S36 and divalent fluorescent ligand S31. Sensorgrams obtained from SPR single-cycle kinetics experiments. Five different concentrations of each compound (0, 10, 50, 100, 200 nM) were sequentially injected to obtain the experimental sensorgrams (orange lines), which were then fitted by a 1:1 model (blue lines) on BIACORE evaluation software.
(also on this page, place not known: 561 and ZAA-116 ZAA-112 100012001400 Response [RU] Experimental fit 100012001400 Response [RU] Experimental fit 100012001400 Response [RU] Experimental fit Response [RU] Experimental fit Response [RU] Experimental fit model 100012001400 Response [RU] Experimental data 1:1 fit Same well) […]
0 kon koff kinetic equilibrium#
Figure S13:C Evaluation of the optimized fluorescent ligand Time (min)17 and its synthetic precursor Time (min)16 in LecA […]
binding assays. (A) Competitive binding (top) and direct binding (bottom) by fluorescence polarization. (B) Kinetic and equilibrium analysis by SPR (0.20 #values with limited reliability, equilibrium not fully reached). Data for one representative experiment are depicted in A0.00ZAA-202 and B. Averages and std. dev. from at least three independent 0.00ZAA-203 […]
30 -0.4Expe rime ntal data0 1:1 fi t 25 -0.20Expe rime ntal data 1:1 fi t […]
25 Expe rime ntal data 1:1 fi t Expe rime ntal data 1:1 fi t
15 Molar Ratio 25 Molar Ratio […]
Figure S14: SPR of divalent LecA ligand 16 and divalent fluorescent ligand 17. Sensorgrams obtained from SPR single-cycle kinetics experiments. Five different concentrations of each compound (0, 10, 50, 100, 200 nM) were sequentially injected to obtain the experimental sensorgrams (orange lines), which were then fitted by a 1:1 model (blue lines) on BIACORE evaluation software.

[3] = individual experiments, 50 µM LecA

T1 sequence (Q05097 whole entry): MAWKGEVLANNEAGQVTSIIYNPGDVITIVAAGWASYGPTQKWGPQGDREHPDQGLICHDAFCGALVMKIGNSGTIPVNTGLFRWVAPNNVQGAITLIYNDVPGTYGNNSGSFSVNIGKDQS

Structure (SMILES) | Kd (LecA [1]; Kd (ITC, average), LecA 50 µM, TBS/Ca2+ with 5% DMSO, 25 °C, average ± s.d. (16: two experiments)) | Kd (LecA [1]; Kd (ITC, single titration), individual experiments, 50 µM LecA) | -TΔS (ITC, average) (LecA [1]; 25 °C) | N (ITC stoichiometry, average) (LecA [1]; 25 °C) | ΔG (ITC, average) (LecA [1]; 25 °C) | ΔH (ITC, average) (LecA [1]; 25 °C) | -TΔS (ITC, single titration) (LecA [1]; [3]) | N (ITC, single titration) (LecA [1]; [3]) | ΔG (ITC, single titration) (LecA [1]; [3]) | ΔH (ITC, single titration) (LecA [1]; [3]) | Kd (LecA [2]; equilibrium Kd (steady-state SPR), values with limited reliability, equilibrium not fully reached) | Kd (LecA [2]; kinetic Kd (SPR), single-cycle kinetics, limited reliability, suboptimal fit) | koff (LecA [2]; read-out: koff (SPR)) | kon (LecA [2]; read-out: kon (SPR)) | Kd (LecA [1]; read-out: Kd (ITC, average), LecA 50 µM, TBS/Ca2+ with 5% DMSO, 25 °C, average ± s.d. (16: two experiments)) | Kd (LecA [1]; read-out: Kd (ITC, single titration), individual experiments, 50 µM LecA) | Kd (LecA [2]; read-out: equilibrium Kd (steady-state SPR), values with limited reliability, equilibrium not fully reached) | Kd (LecA [2]; read-out: kinetic Kd (SPR), single-cycle kinetics, limited reliability, suboptimal fit)
C#CCCN(Cc1ccc(NC(=O)CCc2ccc(O[C@@H]3O[C@H](CO)[C@H](O)[C@H](O)[C@H]3O)cc2)cc1)Cc1ccc(NC(=O)CCc2ccc(O[C@@H]3O[C@H](CO)[C@H](O)[C@H](O)[C@H]3O)cc2)cc1 [compound 16] | 47.2 ± 11.3 nM | 36 nM and 58.5 nM | 11.3 ± 0.335 kcal/mol | 0.47 ± 0.03 | -10 ± 0.14 kcal/mol | -21.3 ± 0.19 kcal/mol | 48,8 kJ/mol and 45,9 kJ/mol | 0,45 and 0,50 | -41,3 kJ/mol and -42,5 kJ/mol | -90,1 kJ/mol and -88,5 kJ/mol | 47.8 ± 44.1 nM | 9.9 ± 0.5 nM | 0.00359 ± 0.0013 s⁻¹ | 359000 ± 110000 M⁻¹ s⁻¹ |  |  |  | 
O=C(CCc1ccc(O[C@@H]2O[C@H](CO)[C@H](O)[C@H](O)[C@H]2O)cc1)Nc1ccc(CN(CCc2cn(CCOCCOCCOCCNC(=S)Nc3ccc4c(c3)C(=O)OC43c4ccc(O)cc4Oc4cc(O)ccc43)nn2)Cc2ccc(NC(=O)CCc3ccc(O[C@@H]4O[C@H](CO)[C@H](O)[C@H](O)[C@H]4O)cc3)cc2)cc1 [compound 17] |  |  | 10.1 ± 1.03 kcal/mol | 0.50 ± 0.03 | -9.89 ± 0.287 kcal/mol | -20 ± 0.765 kcal/mol | 38,3 kJ/mol and 39,8 kJ/mol and 48,2 kJ/mol | 0,46 and 0,52 and 0,51 | -42,9 kJ/mol and -41,5 kJ/mol and -39,8 kJ/mol | -81,2 kJ/mol and -81,3 kJ/mol and -88,1 kJ/mol |  |  |  |  | 64.1 ± 31.1 nM | 31.3 nM and 55.3 nM and 106 nM | 79.3 ± 24.9 nM | 19.3 ± 10.5 nM
